# Assay results reported in US10787483B2, “Antimicrobial peptidomimetics” (Agency for Science, Technology and Research, priority 2014, dated 2020).
# Where two headings read alike, the source gives them in different places. Square brackets hold non-standard residues; d marks the D form. Peptide text beside a SMILES is read from it. * marks the point of attachment. ξ: configuration not given here. Phe(4-guanidino) = N=C(N)Nc1ccc(C[C@H](N)C(=O)O)cc1; Bip = N[C@@H](Cc1ccc(-c2ccccc2)cc1)C(=O)O; ξpGlu = O=C1CCC(C(=O)O)N1; Agmatine = N=C(N)NCCCCN*; Orn = NCCC[C@H](N)C(=O)O
# Columns and labels:
# [1] = system: E. faecalis; experiment: Antibacterial activity on E. faecalis; assay type: cell-based
# Experimental: (§1) Using a sterile loop, 3 to 5 isolated colonies of bacteria of the same morphological appearance are selected from the overnight agar plate. The colonies are transferred into a conical flask containing 5 mL of liquid medium (i.e. Mueller-Hinton broth). The broth is incubated at 37° C. in a shaker at 220 rpm until it reaches a turbidity that is equal to the turbidity of a McFarland Standard 0.5 (correspond to 1×10^8 cfu/mL). This culture growth step will require 1-2 hours depending on the bacteria tested.
# (§2) During this pause period, an antibacterial dilution is prepared. Therefore an antibacterial stock solution is diluted in Mueller-Hinton broth. The concentration of DMSO is kept at 5%. 100 μL of the antibacterial solution are dispensed into the first well of a row. 50 μL of medium containing 0.5% of DMSO are dispensed to the rest of the wells. […]
# (§3) The bacterial suspension prepared above is mixed thoroughly, and diluted by a factor of 1:100 in the sterile medium. […] The colonies on the agar plate are counted the next day to verify that the right number of cfu was inoculated. The plate is agitated in the SpectraMax spectrophotometer for 90 s and the OD600 for all the wells in the plate is recorded.
# [2] = system: Strep. pyogenes (ARC 838); experiment: MIC determination by broth microdilution vs. Strep. pyogenes (ARC 838); assay type: cell-based; settings: Streptococcus pyogenes
# Experimental: as §1, §2, §3
# [3] = system: S. aureus (ATCC 29213); experiment: MIC determination by broth microdilution vs. S. aureus (ATCC 29213); assay type: cell-based; settings: Staphylococcus aureus
# Experimental: as §1, §2, §3
# [4] = system: MRSA (ATCC 33591); experiment: MIC determination by broth microdilution vs. MRSA (ATCC 33591); assay type: cell-based, Staphylococcus aureus; settings: for MIC: Staphylococcus aureus
# Experimental: as §1
# During this pause period, an antibacterial dilution is prepared. Therefore an antibacterial stock solution is diluted in Mueller-Hinton broth. The concentration of DMSO is kept at 5%. 100 μL of the antibacterial solution are dispensed into the first well of a row. 50 μL of medium containing 0.5% of DMSO are dispensed to the rest of the wells. A 2-fold serial dilution is achieved by transferring 50 μL from the first well (containing the highest concentration of antibacterial) into the second well, and continuing like this until the 10th well in the row. The final 50 μL are discarded so that every well has 50 μL of each antibacterial dilution.
# The 11th well was used as the growth control well (medium with bacterial inoculums, no antibacterial) while the 12th well was the sterility control well (medium only).
# The bacterial suspension prepared above is mixed thoroughly, and diluted by a factor of 1:100 in the sterile medium. Each well and the growth control well is inoculated with 50 μL of the bacterial suspension. […] To the sterility control well 50 μL of sterile medium are added in place of the bacterial suspension. 10 μL aliquot from the growth control well is removed immediately after inoculating the plate and pipetted it into a sterile Eppendorf tube holding 990 μL of sterile broth. It is mixed well by vortexing. This suspension is further diluted (1:10) by pipetting 100 μL into 900 μL of sterile broth and mixing it well. 100 μL of each of the two dilutions are plated onto two different antibacterial-free agar plates. A sterile cell spreader is used to spread the liquid. Then the plate is sealed with a transparent adhesive film. The microtiter plate and agar plates are incubated at 37° C. for 16-20 hours or until satisfactory growth is obtained. The colonies on the agar plate are counted the next day to verify that the right number of cfu was inoculated. The plate is agitated in the SpectraMax spectrophotometer for 90 s and the OD600 for all the wells in the plate is recorded.
# [5] = system: S. aureus (RN 4220); experiment: MIC determination by broth microdilution vs. S. aureus (RN 4220); assay type: cell-based; settings: Staphylococcus aureus
# Experimental: as §1, §2, §3
# [6] = system: Strep. pneumoniae (ATCC 49619); experiment: MIC determination by broth microdilution vs. Strep. pneumoniae (ATCC 49619); assay type: cell-based, Streptococcus pneumoniae
# Experimental: as §1, §2, §3
# [7] = system: S. aureus (ATCC 29213); experiment: Bactericidal activity at MIC after dilution of the antibacterial (FIG. 2); assay type: cell-based, Staphylococcus aureus; settings: treatment at its MIC
# [8] = MRSA (ATCC 33591), read-out: MIC
"MIC [4, 8]",SMILES,other results
12.5 µM,N=C(N)NCCCCNC(=O)[C@@H](Cc1ccc(-c2ccccc2)cc1)NC(=O)[C@H](CCCNC(=N)N)NC(=O)[C@@H](N)Cc1ccc(-c2ccccc2)cc1 [Compound 2],–
25 µM,N=C(N)NCCCCNC(=O)[C@H](Cc1ccc(-c2ccccc2)cc1)NC(=O)[C@@H](CCCNC(=N)N)NC(=O)[C@@H](N)Cc1ccc(-c2ccccc2)cc1 [Compound 3],–
25 µM,N=C(N)NCCCCNC(=O)[C@H](Cc1ccc(-c2ccccc2)cc1)NC(=O)[C@H](CCCNC(=N)N)NC(=O)[C@H](N)Cc1ccc(-c2ccccc2)cc1 [Compound 4],–
25 µM,N=C(N)NCCC[C@H](NC(=O)[C@@H](N)Cc1ccc(-c2ccccc2)cc1)C(=O)N[C@@H](Cc1ccc(-c2ccccc2)cc1)C(=O)NCCCCNC(N)=O [Compound 5],–
25 µM,N=C(N)NCCCCNC(=O)[C@H](Cc1ccccc1)NC(=O)[C@H](CCCNC(=N)N)NC(=O)[C@@H](N)Cc1ccc(-c2ccccc2)cc1 [Compound 8] (H-[Bip]-Arg-Phe-Agmatine),–
50 µM,N=C(N)NCCCCNC(=O)[C@H](Cc1ccc2ccccc2c1)NC(=O)[C@H](CCCNC(=N)N)NC(=O)[C@@H](N)Cc1ccc(-c2ccccc2)cc1 [Compound 9],–
12.5 µM,N=C(N)NCCCCNC(=O)[C@H](Cc1ccc(Cl)cc1)NC(=O)[C@H](CCCNC(=N)N)NC(=O)[C@@H](N)Cc1ccc(-c2ccccc2)cc1 [Compound 12],–
25 µM,N=C(N)NCCCCNC(=O)[C@H](Cc1ccc(-c2ccccc2)cc1)NC(=O)[C@H](CNC(=N)N)NC(=O)[C@@H](N)Cc1ccc(-c2ccccc2)cc1 [Compound 16],–
6.25 µM,N=C(N)NCCCCNC(=O)[C@H](Cc1ccc(-c2ccccc2)cc1)NC(=O)[C@H](CCCCNC(=N)N)NC(=O)[C@@H](N)Cc1ccc(-c2ccccc2)cc1 [Compound 19],–
6.25 µM,N=C(N)NCCCCNC(=O)[C@H](Cc1ccc(-c2ccccc2)cc1)NC(=O)C[C@H](CCCNC(=N)N)NC(=O)[C@@H](N)Cc1ccc(-c2ccccc2)cc1 [Compound 20],–
25 µM,N=C(N)NCCCCNC(=O)[C@H](Cc1ccc(-c2ccccc2)cc1)NC(=O)[C@H](CCCNC(=N)N)NC(=O)[C@@H](N)Cc1ccc(Cl)cc1 [Compound 22],–

# Continued, compound first:
SMILES,"MIC [4, 8]",other results
"N=C(N)NCCCCNC(=O)[C@H](Cc1ccc(-c2ccccc2)cc1)NC(=O)[C@H](CCCNC(=N)N)NC(=O)[C@@H](N)Cc1ccc(-c2ccccc2)cc1 [Compound 1a, Bip-Arg-Bip-agmantine]",–,"activity on E. faecalis [1]: showed activity; MIC [2]: 6.25 µM; MIC ([3]; ATCC 29123 / ATCC 29213, S. aureus (ATCC 29123) as printed, read-out: MIC value): 3.12 µM; MIC ([3]; ATCC29213, S. aureus (ATCC 29213), read-out: MIC(μM) (ATCC 29213)): 3.12 µM; MIC value compared with Linezolid and Daptomycin ([4]; S. aureus tests (ATCC 33591, RN 4220, ATCC 29123)): lower MIC value; MIC ([4]; MRSA (ATCC 33591), read-out: MIC value): 3.12 µM; MIC ([4]; MRSA (ATCC 33591), read-out: MIC(μM) (ATCC 33591)): 3.12 µM; MIC [5]: 3.12 µM; MIC compared with Daptomycin ([6]; Strep. tests (Strep. pneumoniae ATCC 49619, Strep. pyogenes ARC 838)): at least improvement over Daptomycin; MIC ([6]; Streptococcus pneumoniae, ATCC49619, Strep. pneumoniae (ATCC 49619)): 6.25 µM; mode of action (regrowth after dilution of the antibacterial) [7]: bactericidal mode of action"
N=C(N)NCCC[C@H](NC(=O)[C@@H](N)Cc1ccc(-c2ccccc2)cc1)C(=O)N[C@@H](Cc1ccc(-c2ccccc2)cc1)C(=O)N[C@H]1CC[C@@H](NC(=N)N)CC1 [Compound 6],6.25 µM,–
N=C(N)NCCC[C@H](NC(=O)[C@@H](N)Cc1ccc(-c2ccccc2)cc1)C(=O)N[C@@H](Cc1ccc(-c2ccccc2)cc1)C(=O)N[C@H]1CC[C@H](NC(=N)N)CC1 [Compound 7],6.25 µM,–
N=C(N)NCCCCNC(=O)CN(Cc1ccc(-c2ccccc2)cc1)C(=O)[C@H](CCCNC(=N)N)NC(=O)[C@@H](N)Cc1ccc(-c2ccccc2)cc1 [Compound 10],–,MIC [4]: 3.12 µM
N=C(N)NCCCCNC(=O)CN(Cc1ccc(-c2ccccc2)cc1)C(=O)[C@@H](CCCNC(=N)N)NC(=O)[C@H](N)Cc1ccc(-c2ccccc2)cc1 [Compound 11],–,MIC [4]: 12.5 µM
N=C(N)NCCCCNC(=O)[C@H](Cc1ccc(-c2ccccc2)cc1)NC(=O)[C@H](CCCCN)NC(=O)[C@@H](N)Cc1ccc(-c2ccccc2)cc1 [Compound 13] (H-[Bip]-Lys-[Bip]-Agmatine),6.25 µM,–
N=C(N)NCCCCNC(=O)[C@H](Cc1ccc(-c2ccccc2)cc1)NC(=O)[C@H](CCCN)NC(=O)[C@@H](N)Cc1ccc(-c2ccccc2)cc1 [Compound 14] (H-[Bip]-[Orn]-[Bip]-Agmatine),12.5 µM,–
C/N=C(/NC)NCCC[C@H](NC(=O)[C@@H](N)Cc1ccc(-c2ccccc2)cc1)C(=O)N[C@@H](Cc1ccc(-c2ccccc2)cc1)C(=O)NCCCCNC(=N)N [Compound 15],12.5 µM,–
N=C(N)NCCCCNC(=O)[C@H](Cc1ccc(-c2ccccc2)cc1)NC(=O)[C@H](Cc1ccc(NC(=N)N)cc1)NC(=O)[C@@H](N)Cc1ccc(-c2ccccc2)cc1 [Compound 17] (H-[Bip]-[Phe(4-guanidino)]-[Bip]-Agmatine),6.25 µM,–
CN(C(=O)[C@H](CCCNC(=N)N)NC(=O)[C@@H](N)Cc1ccc(-c2ccccc2)cc1)[C@@H](Cc1ccc(-c2ccccc2)cc1)C(=O)NCCCCNC(=N)N [Compound 18],6.25 µM,–
N=C(N)NCCCCNC(=O)[C@H](Cc1ccc(-c2ccccc2)cc1)NC(=O)CN(CCCNC(=N)N)C(=O)[C@@H](N)Cc1ccc(-c2ccccc2)cc1 [Compound 21],6.25 µM,–
CC(=O)N[C@@H](Cc1ccc(-c2ccccc2)cc1)C(=O)N[C@@H](CCCNC(=N)N)C(=O)N[C@@H](Cc1ccc(-c2ccccc2)cc1)C(=O)NCCCCNC(=N)N [Compound 23],12.5 µM,–
N=C(N)NCCCCNC(=O)[C@H](Cc1ccc(-c2ccccc2)cc1)NC(=O)[C@H](CCCNC(=N)N)NC(=O)[C@H](Cc1ccc(-c2ccccc2)cc1)NC(=O)C1CCC(=O)N1 (stereo partly shown) [Compound 24] ([ξpGlu][Bip]R[Bip]-Agmatine),12.5 µM,–
CCCCCCCCCC(=O)N[C@@H](Cc1ccc(-c2ccccc2)cc1)C(=O)N[C@@H](CCCNC(=N)N)C(=O)N[C@@H](Cc1ccc(-c2ccccc2)cc1)C(=O)NCCCCNC(=N)N [Compound 25],12.5 µM,–
CC(C)(C)c1ccc(-c2ccc(C[C@H](NC(=O)[C@H](CCCNC(=N)N)NC(=O)[C@@H](N)Cc3ccc(-c4ccc(C(C)(C)C)cc4)cc3)C(=O)NCCCCNC(=N)N)cc2)cc1 [Compound 26],12.5 µM,–
N=C(N)NCCCCNC[C@H](Cc1ccc(-c2ccccc2)cc1)NC(=O)[C@H](CCCNC(=N)N)NC(=O)[C@@H](N)Cc1ccc(-c2ccccc2)cc1 [Compound 27],6.25 µM,–
N=C(N)NCCCCNC(=O)[C@H](Cc1ccc(-c2ccccc2)cc1)NC[C@H](CCCNC(=N)N)NC(=O)[C@@H](N)Cc1ccc(-c2ccccc2)cc1 [Compound 28],12.5 µM,–
N=C(N)NCCCCNC(=O)[C@H](Cc1ccc(-c2ccccc2)cc1)NC(=O)[C@H](CCCNC(=N)N)NC[C@@H](N)Cc1ccc(-c2ccccc2)cc1 [Compound 29],3.12 µM,–
"CC(=O)NC[C@H]1CN(c2ccc(N3CCOCC3)c(F)c2)C(=O)O1 [Linezolid, reference compound]",–,mode of action (regrowth after dilution of the antibacterial) [7]: bacteriostatic
